Drawing on patent US9567345B2, “Pharmaceutically active pyrazolo-triazine derivatives” (LEAD DISCOVERY CENTER GMBH, priority 2012, dated 2017), this text covers IC50 for 19 compounds.

What all share (assay type): biochemical
The target in one assay is CDK9/Cyclin T1 (Homo sapiens, UniProt P50750). Description: CDK9 Enzymatic Activity Assay (Lance Kinase Activity Assay, FRET). To be noted: Table 5B, class symbols per IC50 [nM] ranges of b581; read-out: CDK9: Selectivity of CDK7 inhibition over CDK9 inhibition. In a few lines:
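CDK9/cyclin T1 phosphorylation of a ULight-MBP peptide was run for 1 h at room temperature in pH 7.5 HEPES buffer with MgCl2, EGTA, DTT and Tween-20. It was followed by 1 h with Eu-anti-phospho-MBP antibody (4 nM) in EDTA detection buffer. TR-FRET loss gave IC50 from 8-point, 1:3 sigmoidal dose-response curves.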

A further assay concerns the target T1, CDK2/CycA (Homo sapiens, UniProt P24941).
T1 construct: purchased Proqinase
The experiment in a line: CDK2 Enzymatic Activity Assay (Lance Kinase Activity Assay, FRET). Conditions: Table 5B, class symbols per IC50 [nM] ranges of b581; read-out: CDK2: Selectivity of CDK7 inhibition over CDK2 inhibition. The gist of the method: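 Compounds in an 8-step, 1:3 dilution series were incubated 1 h at room temperature with CDK2/CycA, ULight-MBP substrate and ATP in pH 7.5 HEPES buffer.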

The next assay deals with CDK7/CycH/Mat1 (Homo sapiens, UniProt P50613). The experiment in a line: CDK7 Enzymatic Activity Assay (Lance Kinase Activity Assay, FRET). Conditions: CDK7/CycH/Mat1, 25 μM ATP final; class ranges; read-out: CDK7: IC50 [nM] for CDK7 inhibition. The gist of the method:
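TR-FRET (LANCE) kinase assay: CDK7/CycH/Mat1 phosphorylates Ulight-MBP substrate for 1 h at room temperature in pH 7.5 HEPES buffer; detection 1 h with Eu-labelled anti-phospho antibody plus EDTA.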

CDK7/CycH/Mat1, sequence (P50613 whole entry): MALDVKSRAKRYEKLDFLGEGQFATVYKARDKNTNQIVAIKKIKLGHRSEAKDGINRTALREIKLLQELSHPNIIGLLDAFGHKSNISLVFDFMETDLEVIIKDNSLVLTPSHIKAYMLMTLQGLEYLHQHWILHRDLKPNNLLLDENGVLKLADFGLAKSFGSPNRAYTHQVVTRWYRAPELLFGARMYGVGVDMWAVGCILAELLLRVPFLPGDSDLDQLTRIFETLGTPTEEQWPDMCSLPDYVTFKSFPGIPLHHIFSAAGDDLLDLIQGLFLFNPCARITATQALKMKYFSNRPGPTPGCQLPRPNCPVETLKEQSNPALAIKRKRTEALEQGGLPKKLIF
CDK9/Cyclin T1, sequence (P50750 whole entry): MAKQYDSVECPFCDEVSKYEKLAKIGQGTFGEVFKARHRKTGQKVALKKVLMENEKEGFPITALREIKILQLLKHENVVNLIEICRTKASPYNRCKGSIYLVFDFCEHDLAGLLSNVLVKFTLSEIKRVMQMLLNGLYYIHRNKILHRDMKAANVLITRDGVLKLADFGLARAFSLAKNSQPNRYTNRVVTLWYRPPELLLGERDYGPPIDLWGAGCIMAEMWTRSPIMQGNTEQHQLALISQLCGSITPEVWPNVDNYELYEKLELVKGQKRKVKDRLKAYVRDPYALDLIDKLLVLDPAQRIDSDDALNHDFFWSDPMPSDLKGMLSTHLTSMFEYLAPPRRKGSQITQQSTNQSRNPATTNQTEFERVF
CDK9/Cyclin T1, sequence (O60563 whole entry partner): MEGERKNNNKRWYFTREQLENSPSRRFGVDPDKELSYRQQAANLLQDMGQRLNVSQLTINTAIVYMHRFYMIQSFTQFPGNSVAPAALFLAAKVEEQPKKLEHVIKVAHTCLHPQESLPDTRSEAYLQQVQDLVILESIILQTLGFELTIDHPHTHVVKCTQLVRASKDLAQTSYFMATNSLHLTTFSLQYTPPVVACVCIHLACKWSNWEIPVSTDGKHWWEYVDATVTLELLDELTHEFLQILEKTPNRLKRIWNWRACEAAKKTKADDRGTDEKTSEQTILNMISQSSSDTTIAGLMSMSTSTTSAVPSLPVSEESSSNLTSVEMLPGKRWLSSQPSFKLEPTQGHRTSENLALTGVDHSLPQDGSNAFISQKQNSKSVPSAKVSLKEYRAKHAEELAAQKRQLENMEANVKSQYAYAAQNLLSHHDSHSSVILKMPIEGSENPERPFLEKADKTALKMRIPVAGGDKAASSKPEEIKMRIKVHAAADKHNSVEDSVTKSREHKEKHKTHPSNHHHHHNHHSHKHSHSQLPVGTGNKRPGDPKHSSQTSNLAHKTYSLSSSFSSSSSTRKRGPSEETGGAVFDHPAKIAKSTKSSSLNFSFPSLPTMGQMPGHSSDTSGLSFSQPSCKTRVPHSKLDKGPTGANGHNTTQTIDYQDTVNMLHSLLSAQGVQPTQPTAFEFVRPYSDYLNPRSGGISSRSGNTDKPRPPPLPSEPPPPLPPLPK

Regarding `CSc1ccccc1CNc1nc(O[C@@H]2CCCNC2)nc2c(C(C)C)cnn12` [(VII-118), (R)-8-isopropyl-N-(2-(methylthio)benzyl)-2-(piperidin-3-yloxy)pyrazolo[1,5-a][1,3,5]triazin-4-amine], the IC50 was in the range of 50 to 500 nM on CDK9/Cyclin T1, 50 to 500 nM on CDK2/CycA and 5 to 10 nM on CDK7/CycH/Mat1.

Take `CC(C)c1cnn2c(NCc3ccccc3SC3CCCC3)nc(O[C@@H]3CCCNC3)nc12` [(VII-119), (R)-N-(2-(cyclopentylthio)benzyl)-8-isopropyl-2-(piperidin-3-yloxy)pyrazolo[1,5-a][1,3,5]triazin-4-amine]: the IC50 is > 2500 nM on CDK9/Cyclin T1, 500 to 2500 nM at CDK2/CycA and > 25 nM at CDK7/CycH/Mat1.

For the compound `CC(C)c1cnn2c(NCc3ccccc3-n3cccn3)nc(OC3C=CCNC3)nc12` (stereo not drawn) [(VII-120), N-(2-(1H-pyrazol-1-yl)benzyl)-8-isopropyl-2-((1,2,3,6-tetrahydropyridin-3-yl)oxy)pyrazolo[1,5-a][1,3,5]triazin-4-amine], the IC50 at CDK9/Cyclin T1 is > 2500 nM; on CDK2/CycA, 50 to 500 nM; on CDK7/CycH/Mat1, 5 to 10 nM.

With `CC(C)c1cnn2c(NCc3ccccc3-n3cccn3)nc(OC3COC4(CCNCC4)C3)nc12` (stereo not drawn) [(VII-121), 2-(1-oxa-8-azaspiro[4.5]decan-3-yloxy)-N-(2-(1H-pyrazol-1-yl)benzyl)-8-isopropylpyrazolo[1,5-a][1,3,5]triazin-4-amine], the IC50 on CDK9/Cyclin T1 is > 2500 nM; at CDK2/CycA, > 2500 nM; on CDK7/CycH/Mat1 it was < 5 nM.

For the compound `CC(C)c1cnn2c(NCc3ccccc3-n3cccn3)nc(OC3CNCCOC3)nc12` (stereo not drawn) [(VII-122), 2-((1,4-oxazepan-6-yl)oxy)-N-(2-(1H-pyrazol-1-yl)benzyl)-8-isopropylpyrazolo[1,5-a][1,3,5]triazin-4-amine], the values for the IC50 at CDK9/Cyclin T1, on CDK2/CycA and at CDK7/CycH/Mat1 were > 2500 nM, 500 to 2500 nM and 10 to 25 nM, respectively.

`CC(C)c1cnn2c(NCc3ccccc3-n3cccn3)nc(OC3C[C@H]4CNC[C@@H]34)nc12` (stereo partly drawn) [(VII-123), N-(2-(1H-pyrazol-1-yl)benzyl)-2-((1R,5S)-3-azabicyclo[3.2.0]heptan-6-yloxy)-8-isopropylpyrazolo[1,5-a][1,3,5]triazin-4-amine]: the IC50 on CDK9/Cyclin T1 was > 2500 nM; at CDK2/CycA it was 50 to 500 nM; at CDK7/CycH/Mat1 it was < 5 nM.

As to `CC(C)c1cnn2c(NCc3ccccc3-n3cccn3)nc(OCCN3CCNCC3)nc12` [(VII-124), N-(2-(1H-pyrazol-1-yl)benzyl)-8-isopropyl-2-(2-(piperazin-1-yl)ethoxy)pyrazolo[1,5-a][1,3,5]triazin-4-amine], the IC50 on CDK9/Cyclin T1 was > 2500 nM; at CDK2/CycA, > 2500 nM; at CDK7/CycH/Mat1 it was > 25 nM.

Take `CC(C)c1cnn2c(NCc3ccccc3C3CCCC3)nc(O[C@@H]3CCCNC3)nc12` [(VII-142), (R)-N-(2-cyclopentylbenzyl)-8-isopropyl-2-(piperidin-3-yloxy)pyrazolo[1,5-a][1,3,5]triazin-4-amine]: the figures for the IC50 on CDK9/Cyclin T1, at CDK2/CycA and at CDK7/CycH/Mat1 were > 2500 nM, > 2500 nM and > 25 nM, respectively.

Take `CC(=O)Oc1ccccc1CNc1nc(O[C@@H]2CCCNC2)nc2c(C(C)C)cnn12` [(VII-145), (R)-2-(((8-isopropyl-2-(piperidin-3-yloxy)pyrazolo[1,5-a][1,3,5]triazin-4-yl)amino)methyl)phenyl acetate]: the IC50 is 500 to 2500 nM on CDK9/Cyclin T1, 500 to 2500 nM at CDK2/CycA and 10 to 25 nM on CDK7/CycH/Mat1.

For `CCNC(=O)Oc1ccccc1CNc1nc(O[C@@H]2CCCNC2)nc2c(C(C)C)cnn12` [(VII-146), (R)-2-(((8-isopropyl-2-(piperidin-3-yloxy)pyrazolo[1,5-a][1,3,5]triazin-4-yl)amino)methyl)phenyl ethylcarbamate], the IC50 at CDK9/Cyclin T1 is > 2500 nM; at CDK2/CycA, > 2500 nM; on CDK7/CycH/Mat1, 10 to 25 nM.

As to `CC(C)c1cnn2c(NCc3ccccc3OS(C)(=O)=O)nc(O[C@@H]3CCCNC3)nc12` [(VII-147), (R)-2-(((8-isopropyl-2-(piperidin-3-yloxy)pyrazolo[1,5-a][1,3,5]triazin-4-yl)amino)methyl)phenyl methanesulfonate], the results for the IC50 at CDK9/Cyclin T1, on CDK2/CycA and on CDK7/CycH/Mat1 were > 2500 nM, 50 to 500 nM and 5 to 10 nM, respectively.

Turning to `CC(C)c1cnn2c(NCc3ccccc3OS(=O)C(C)(C)C)nc(O[C@@H]3CCCNC3)nc12` (stereo partly drawn) [(VII-148), 2-(((8-isopropyl-2-((R)-piperidin-3-yloxy)pyrazolo[1,5-a][1,3,5]triazin-4-yl)amino)methyl)phenyl 2-methylpropane-2-sulfinate], the IC50 at CDK9/Cyclin T1 is 50 to 500 nM; at CDK2/CycA, 50 to 500 nM; at CDK7/CycH/Mat1, < 5 nM.

In the case of `CC(C)COC(=O)Oc1ccccc1CNc1nc(O[C@@H]2CCCNC2)nc2c(C(C)C)cnn12` [(VII-149), (R)-isobutyl (2-(((8-isopropyl-2-(piperidin-3-yloxy)pyrazolo[1,5-a][1,3,5]triazin-4-yl)amino)methyl)phenyl) carbonate], the IC50 is > 2500 nM on CDK9/Cyclin T1, > 2500 nM on CDK2/CycA and 10 to 25 nM at CDK7/CycH/Mat1.

In the case of `CC(C)c1cnn2c(NCc3ccccc3N=S(C)(C)=O)nc(O[C@@H]3CCCNC3)nc12` [(VII-151), N-(2-(((8-isopropyl-2-((R)-piperidin-3-yloxy)pyrazolo[1,5-a][1,3,5]triazin-4-yl)amino)methyl)phenyl)-S,S-dimethylsulfoximine], the IC50 was > 2500 nM on CDK9/Cyclin T1, 500 to 2500 nM on CDK2/CycA and < 5 nM on CDK7/CycH/Mat1.

For `CC(C)c1cnn2c(NCc3ccccc3[S+](C)[O-])nc(O[C@@H]3CCCNC3)nc12` (stereo partly drawn) [(VII-152), 8-isopropyl-N-(2-(methylsulfinyl)benzyl)-2-((R)-piperidin-3-yloxy)pyrazolo[1,5-a][1,3,5]triazin-4-amine], the IC50 on CDK9/Cyclin T1 is 500 to 2500 nM; on CDK2/CycA, 50 to 500 nM; at CDK7/CycH/Mat1, 10 to 25 nM.

As for `CC(C)c1cnn2c(NCc3ccccc3[S+]([O-])C3CCCC3)nc(O[C@@H]3CCCNC3)nc12` (stereo partly drawn) [(VII-153), N-(2-(cyclopentylsulfinyl)benzyl)-8-isopropyl-2-((R)-piperidin-3-yloxy)pyrazolo[1,5-a][1,3,5]triazin-4-amine], the figures for the IC50 on CDK9/Cyclin T1, at CDK2/CycA and at CDK7/CycH/Mat1 were > 2500 nM, > 2500 nM and 10 to 25 nM, respectively.

With `CC(C)c1cnn2c(NCc3ccccc3S(C)(=O)=O)nc(O[C@@H]3CCCNC3)nc12` [(VII-154), (R)-8-isopropyl-N-(2-(methylsulfonyl)benzyl)-2-(piperidin-3-yloxy)pyrazolo[1,5-a][1,3,5]triazin-4-amine], the IC50 on CDK9/Cyclin T1 was > 2500 nM; on CDK2/CycA, 50 to 500 nM; at CDK7/CycH/Mat1, < 5 nM.

Take `CC(C)c1cnn2c(NCc3ccccc3-n3cccn3)nc(NC3CCCNC3)nc12` (stereo not drawn) [(VIII-01), N4-(2-(1H-pyrazol-1-yl)benzyl)-8-isopropyl-N2-(piperidin-3-yl)pyrazolo[1,5-a][1,3,5]triazine-2,4-diamine]: the values for the IC50 on CDK9/Cyclin T1, on CDK2/CycA and at CDK7/CycH/Mat1 were > 2500 nM, 50 to 500 nM and < 5 nM, respectively.

In the case of `CC(C)c1cnn2c(NCc3ccccc3-n3cccn3)nc(N3CCC4(CCCN4)CC3)nc12` [(VIII-11), N-(2-(1H-pyrazol-1-yl)benzyl)-8-isopropyl-2-(1,8-diazaspiro[4.5]decan-8-yl)pyrazolo[1,5-a][1,3,5]triazin-4-amine], the figures for the IC50 at CDK9/Cyclin T1, at CDK2/CycA and at CDK7/CycH/Mat1 were > 2500 nM, 500 to 2500 nM and < 5 nM, respectively.
